The test system of assay [1] is TPA-induced Str-AP1-CAT expression. Nature of the assay: Example 13: anti-AP-1 activity, Str-AP1-CAT and pRS-hRARα in HeLa cells. The format is cell-based. The note with it: AGN 193109 alone, 10^−10 to 10^−8 M.
Assay [2] deals with T1, RARα (Homo sapiens, UniProt P10276).
T1 sequence (P10276 1-462): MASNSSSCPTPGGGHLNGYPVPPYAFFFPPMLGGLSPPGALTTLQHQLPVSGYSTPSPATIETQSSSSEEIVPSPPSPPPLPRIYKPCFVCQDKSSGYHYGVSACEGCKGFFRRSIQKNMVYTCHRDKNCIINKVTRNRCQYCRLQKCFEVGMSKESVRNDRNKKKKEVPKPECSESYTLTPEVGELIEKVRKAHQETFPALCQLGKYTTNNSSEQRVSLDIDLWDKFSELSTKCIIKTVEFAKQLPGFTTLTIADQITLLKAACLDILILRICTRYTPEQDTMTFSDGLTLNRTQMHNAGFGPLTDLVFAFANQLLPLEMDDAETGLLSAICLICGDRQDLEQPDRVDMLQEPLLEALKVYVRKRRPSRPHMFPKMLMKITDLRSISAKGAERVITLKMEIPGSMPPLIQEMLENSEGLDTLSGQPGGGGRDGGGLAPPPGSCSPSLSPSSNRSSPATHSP
Briefly: Example 8: protease protection analysis. It is filed as biochemical. On the set-up: host or cells: TNT-coupled reticulocyte lysate in vitro transcription-translation. The note with it: ATRA and AGN 193109 100 nM, AGN 193583 1000 nM; trypsin 25, 50 or 100 μg/ml, 10 minutes. The protocol: A plasmid constructed in the vector pGEM3Z (Pharmacia) and containing the RAR-α cDNA (Giguere et al. Nature 330:624 (1987)), was used in connection with the TNT-coupled reticulocyte lysate in vitro transcription-translation system (Promega) to prepare [^35S]-methionine labeled RAR-α. Limited proteolytic digestion of the labeled protein RAR-α was carried out according to the method described by Keidel et al. in Mol. Cell. Biol. 14:287 (1994). […] After ligand binding, 1 μl of appropriately concentrated trypsin was added to the mixture to give final concentrations of 25, 50 or 100 μg/ml. Samples were incubated at room temperature for 10 minutes and trypsin digestion stopped by addition of SDS-sample buffer. Samples were subjected to polyacrylamide gel electrophoresis and autoradiographed according to standard procedures.

In assay [3] the test system is CaSki cells. Nature of the assay: Example 18: proliferation of CaSki cells. The format is cell-based. The following applies: 10^−6 M AGN 193109, no added retinoid agonist. The protocol: EGF was added to the retinoid treated cultures to give a final concentration of 20 ng/ml. […] The media was replaced with fresh media and each of the two retinoid compounds, as appropriate, every day. Cell numbers were determined using a COULTER counter as described above.

For assay [4], the system named is ER-RAR-α. Briefly: Example 10: repression of basal gene activity, ERE-tk-Luc, CV-1 cells. It is filed as cell-based. The following applies: 10^−9 to 10^−6 M, 18 hours, single agent. An excerpt: (§1) More specifically, these procedures employed the ER-RAR chimeric receptor and ERE-tk-Luc reporter system. The ERE-tk-Luc plasmid includes the region −397 to −87 of the estrogen responsive 5′-flanking region of the Xenopus vitellogenin A2 gene, described by Klein-Hitpass, et al. in Cell 46:1053-1061 (1986), ligated upstream of the HSV thymidine kinase promoter and luciferase reporter gene of plasmid tk-Luc. The ER-RAR chimeric receptors consisted of the estrogen receptor DNA binding domain fused to the “D-E-F” domain of the RARs. Those having ordinary skill in the art appreciate this “D-E-F” domain functions to bind retinoid, to provide a retinoid inducible transactivation function and to provide a contact site for heterodimerization with RXR. Thus, luciferase expression in this reporter system was dependent on activation of the transfected chimeric receptor construct.
(§2) CV-1 cells were co-transfected with the ERE-tk-Luc reporter plasmid and either ER-RAR-α, ER-RAR-β or ER-RAR-γ expression plasmids. The ERE-tk-Luc plasmid contained the estrogen-responsive promoter element of the Xenopus laevis vitellogenin A2 gene and was substantially identical to the reporter plasmid described by Klein-Hitpass et al. in Cell 46:1053 (1986), except that the CAT reporter gene was substituted by a polynucleotide sequence encoding luciferase. The ER-RAR-α, ER-RARβ and ER-RAR-γ chimeric receptor-encoding polynucleotides employed in the co-transfection have been described by Graupner et al. in Biochem. Biophys. Res. Comm. 179:1554 (1991). […] Calcium phosphate transfections were carried out exactly as described in Example 6 using 0.5 μg/well of reporter plasmid and either 0.05 μg, 0.10 μg or 0.2 μg/well of receptor plasmid. […] Cell lysates and luciferase activity measurements were performed as described in Example 6.

Assay [5] concerns ER-RAR-β. Described as above. The format is cell-based. The note with it: 10^−9 to 10^−6 M, 18 hours, single agent.
Source text: as §1, §2

Assay [6] has as its system ER-RAR-γ. Described as above. The note with it: 10^−9 to 10^−6 M, 18 hours, single agent. It is filed as cell-based.
Source text: as §1, §2

Assay [7] concerns CaSki cell tumors. Briefly: Example 22: CaSki cell tumor growth in nude mice. It is filed as in vivo. The note with it: 20 μMol/kg AGN 193109 in corn oil daily, intragastric. The protocol: 1×10^6 CaSki cells are injected into each of a panel of nude mice. Tumor formation is assessed using techniques that will be familiar to one having ordinary skill in the art. After injection, mice are randomly divided into control and test groups. The control group receives a placebo. The test group is administered with AGN 193109. Animals administered with the placebo receive intragastric intubation of corn oil. The test animals receive 20 μMol/kg AGN 193109 in corn oil daily for the period of the treatment. Tumor volume is measured in […] using graduated calipers. Tumor volume is plotted as function of time.

The subject of assay [8] is RAR-γ-VP-16. Nature of the assay: RAR-γ-VP-16 activity at the ΔMTV-TREp-Luc reporter. The format is cell-based. An excerpt: We have also obtained results which support conclusions identical to those presented under Example 11 by employing RAR-γ-VP-16 and expression constructs and the ΔMTV-TREp-Luc reporter plasmid instead of the RAR-γ-VP-16 and ER-RXR-α expression constructs in combination with the ERE-tk-Luc reporter plasmid. […] Therefore, AGN 193109 repressed RAR-γ-VP-16 activity when this chimeric receptor was directly bound to a retinoic acid receptor response element instead of indirectly bound to an estrogen response element in the promoter region of the reporter plasmid. […] Instead, the critical feature embodied by an experimental system useful for identifying retinoid negative hormones involves detecting the ability of a compound to repress the activity of an RAR engineered to contain a constitutive transcription activation domain.

Assay [9] has as its system RXRs. Nature of the assay: Affinity for the RXRs. It is filed as binding.

For `Cc1ccc(C2=CCC(C)(C)c3ccc(C#Cc4ccc(C(=O)O)cc4)cc32)cc1` [Compound 60, 4-[(5,6-dihydro-5,5-dimethyl-8-(4-methylphenyl)-2-naphthalenyl)ethynyl]benzoic acid], in [1], the “inhibition of AP-1 mediated reporter activity” value was “did not substantially inhibit”. In addition, in assay [2], the “pattern of trypsin sensitivity of labeled RAR-α after prebinding” value is “a protease protection pattern that was indistinguishable from that produced by prebinding of ATRA”. Besides, the proliferation entry in [3] is recorded as “inhibited proliferation of the CaSki cervical epithelial cell line”. The luciferase reporter activity entry was “substantially unaffected” in assay [4], “dose responsive decrease in luciferase reporter activity” in [5] and “dose responsive decrease in luciferase reporter activity” in assay [6]. The tumor growth rate result in assay [7] is reported as “tumors which are significantly reduced in their growth rate”. In assay [8], the “RAR-γ-VP-16 activity at the ΔMTV-TREp-Luc reporter” value is “inhibited”. In assay [9], the “affinity for the RXRs” value is “no measurable affinity”.

(Values after patent US6469028B1, “Synthesis and use of retinoid compounds having negative hormone and/or anatgonist activities” (Allergan, Inc., priority 1995, dated 2002).)
